In US20260083851A1 (AVILAR THERAPEUTICS, INC., priority 2022, published 2026):
Positions of bridges follow the written chain, without caps; N, C: chain ends. Non-standard residues stand in square brackets, D forms with d. Residues, ends and D or L forms follow the SMILES beside them. ξ: configuration not given here. Pro(4S-NH2) = N[C@@H]1CN[C@H](C(=O)O)C1; ξPro(4-NH2) = NC1CNC(C(=O)O)C1

target: T1, ASGP receptor (biotinylated ASGPR) (Homo sapiens, UniProt P07306); experiment: not given; type: binding; details: SPR, Biacore 8K, 25° C.; Table 1A; read-out: ASGPR KD
T1 construct: biotin (biotinylated)
T1 sequence (P07306 1-291): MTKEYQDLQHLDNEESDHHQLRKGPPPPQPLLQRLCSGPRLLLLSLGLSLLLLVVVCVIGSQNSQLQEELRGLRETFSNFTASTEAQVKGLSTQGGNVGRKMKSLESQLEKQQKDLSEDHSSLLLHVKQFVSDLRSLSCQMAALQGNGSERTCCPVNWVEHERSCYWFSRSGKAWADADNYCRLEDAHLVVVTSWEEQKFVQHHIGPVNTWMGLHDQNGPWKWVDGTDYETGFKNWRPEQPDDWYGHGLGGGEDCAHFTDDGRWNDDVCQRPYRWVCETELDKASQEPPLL

Row | Kd | Structure (SMILES)
1 | < 10 µM | OC[C@H]1O[C@H](c2ccccc2)[C@H](Nc2cncc(C(F)(F)F)n2)[C@@H](O)[C@H]1O [A105, (2R,3R,4R,5R,6R)-2-(hydroxymethyl)-6-phenyl-5-((6-(trifluoromethyl)pyrazin-2-yl)amino)tetrahydro-2H-pyran-3,4-diol]
2 | < 10 µM | O=C(NC[C@H]1OC[C@H](Nc2cncc(C(F)(F)F)n2)[C@@H](O)[C@H]1O)c1nc2ccccc2[nH]1 [A13, N-(((2R,3R,4R,5S)-3,4-dihydroxy-5-((6-(trifluoromethyl)pyrazin-2-yl)amino)tetrahydro-2H-pyran-2-yl)methyl)-1H-benzo[d]imidazole-2-carboxamide]
3 | < 10 µM | O=C(NC[C@H]1OC[C@H](Nc2cncc(C(F)(F)F)n2)[C@@H](O)[C@H]1O)c1ncc2ccccc2n1 [A81, N-(((2R,3R,4R,5S)-3,4-dihydroxy-5-((6-(trifluoromethyl)pyrazin-2-yl)amino)tetrahydro-2H-pyran-2-yl)methyl)quinazoline-2-carboxamide]

same assay, conditions: SPR, Biacore 8K, 25° C.; Table 1C; read-out: ASGPR KD

Row | Kd | Structure (SMILES)
4 | < 10 µM | NCCOCCOCC(=O)NC[C@H]1OC[C@H](Oc2cccc(C(F)(F)F)n2)[C@@H](O)[C@H]1O [A326]
5 | < 10 µM | O[C@@H]1[C@H](O)[C@@H](Oc2cccc(C(F)(F)F)n2)CO[C@@H]1CN1CCN(c2ncccn2)CC1 [A270]
6 | < 10 µM | O[C@@H]1[C@H](O)[C@@H](Nc2cccc(C(F)(F)F)n2)CO[C@@H]1COc1cccnn1 [A227, (2R,3R,4R,5S)-2-((pyridazin-3-yloxy)methyl)-5-((6-(trifluoromethyl)pyridine-2-yl)amino)tetrahydro-2H-pyran-3,4-diol]
7 | < 10 µM | C#C[C@H]1OC[C@H](Oc2cccc(C(F)(F)F)n2)[C@@H](O)[C@H]1O [A219, (2R,3R,4S,5S)-2-ethynyl-5-((6-(trifluoromethyl)pyridin-2-yl)oxy)tetrahydro-2H-pyran-3,4-diol]
8 | < 10 µM | C[C@H]1O[C@H](c2cccc3ccccc23)[C@H](Oc2cccc(C(F)(F)F)n2)[C@@H](O)[C@H]1O [A342]
9 | < 10 µM | CC(C)(C)OC(=O)N1CC2CN(C[C@H]3OC[C@H](Oc4cccc(C(F)(F)F)n4)[C@@H](O)[C@H]3O)CC2C1 (stereo partly drawn) [A262]
10 | < 10 µM | O[C@@H]1[C@H](O)[C@@H](Oc2cncc(C(F)(F)F)n2)CO[C@@H]1COc1ccc(Br)c(F)c1 [A210, (2R,3R,4S,5S)-2-((4-bromo-3-fluorophenoxy)methyl)-5-((6-(trifluoromethyl)pyrazin-2-yl)oxy)tetrahydro-2H-pyran-3,4-diol]

same assay, conditions: SPR, Biacore 8K, 25° C.; Table 1D; read-out: ASGPR KD

Row | Kd | Structure (SMILES)
11 | < 10 µM | O=C(c1ccc(-c2ccccc2)cc1)N1C[C@H](Nc2cncc(C(F)(F)F)n2)[C@@H](O)[C@@H](O)C1 [A376]

target: IgG; experiment: IgG SPR binding; details: second table, read-out: IgG KD

Row | Kd | Structure (SMILES)
12 | < 100 nM | CC(C)CC1NC(=O)C(Cc2cnc[nH]2)NC(=O)C(Cc2c[nH]c3ccccc23)NC(=O)C(C)NC(=O)C2CSSCC(NC(=O)C(Cc3c[nH]c4ccccc34)NC(=O)C(C(C)C)NC(=O)C(CC(C)C)NC(=O)C(CCC(=O)O)NC(=O)CNC1=O)C(=O)NC(C(C)O)C(=O)N1CCCC1C(=O)N1CC(N)CC1C(=O)NC(CC(=O)O)C(=O)N2 (stereo not drawn) [compound 63]
13 | < 100 nM | CC(C)C[C@@H]1NC(=O)[C@H](Cc2cnc[nH]2)NC(=O)[C@H](Cc2c[nH]c3ccccc23)NC(=O)[C@H](C)NC(=O)[C@@H]2CSSC[C@H](NC(=O)[C@H](Cc3c[nH]c4ccccc34)NC(=O)[C@H](C(C)C)NC(=O)[C@H](CC(C)C)NC(=O)[C@H](CCC(=O)N(C)C)NC(=O)CNC1=O)C(=O)N[C@@H]([C@@H](C)O)C(=O)N1CCC[C@@H]1C(=O)N1C[C@@H](N)C[C@H]1C(=O)N[C@@H](CC(=O)O)C(=O)N2 [compound 65]
14 | < 100 nM | CC(C)CC1NC(=O)C(Cc2cnc[nH]2)NC(=O)C(Cc2c[nH]c3ccccc23)NC(=O)C(C)NC(=O)C2CSSCC(NC(=O)C(Cc3c[nH]c4ccccc34)NC(=O)C(C(C)C)NC(=O)C(CC(C)C)NC(=O)C(CCC(=O)O)NC(=O)CNC1=O)C(=O)NC(C(C)O)C(=O)N1CCCC1C(=O)N1CC(N)CC1C(=O)NC(CC(N)=O)C(=O)N2 (stereo not drawn) [compound 55] (cyclo(GELVWCTP[ξPro(4-NH2)]NCAWHL); disulfide 6-11; configuration not given here)
15 | < 100 nM | CC(C)C[C@@H]1NC(=O)[C@H](C)NC(=O)CNC(=O)[C@H](CC(C)C)NC(=O)[C@H](Cc2cnc[nH]2)NC(=O)[C@H](Cc2c[nH]c3ccccc23)NC(=O)[C@H](C)NC(=O)[C@@H]2CSSC[C@H](NC(=O)[C@H](Cc3c[nH]c4ccccc34)NC(=O)[C@H](C(C)C)NC1=O)C(=O)N[C@@H]([C@@H](C)O)C(=O)N1CCC[C@@H]1C(=O)N1C[C@@H](N)C[C@H]1C(=O)N[C@@H](CC(N)=O)C(=O)N2 [compound 70] (cyclo(ALVWCT[dP][Pro(4S-NH2)]NCAWHLG); disulfide 5-10)
16 | < 100 nM | CC(C)CC1NC(=O)C(Cc2cnc[nH]2)NC(=O)C(Cc2c[nH]c3ccccc23)NC(=O)C(C)NC(=O)C2CSSCC(NC(=O)C(Cc3c[nH]c4ccccc34)NC(=O)C(C(C)C)NC(=O)C(CC(C)C)NC(=O)C(CCC(=O)O)NC(=O)CNC1=O)C(=O)NC(C(C)O)C(=O)N1CCCC1C(=O)N1CC(N)CC1C(=O)NC(CC(=O)O)C(=O)N2 (stereo not drawn) [compound 58]
17 | < 100 nM | CC(C)CC1NC(=O)C(Cc2cnc[nH]2)NC(=O)C(Cc2c[nH]c3ccccc23)NC(=O)C(C)NC(=O)C2CSSCC(NC(=O)C(Cc3c[nH]c4ccccc34)NC(=O)C(C(C)C)NC(=O)C(CC(C)C)NC(=O)C(CCC(=O)O)NC(=O)CNC1=O)C(=O)NC(C(C)O)C(=O)N1CCCC1C(=O)N1CC(N)CC1C(=O)NC(CC(=O)O)C(=O)N2 (stereo not drawn) [compound 66]
18 | < 100 nM | CC(C)CC1NC(=O)C(Cc2cnc[nH]2)NC(=O)C(Cc2c[nH]c3ccccc23)NC(=O)C(C)NC(=O)C2CSSCC(NC(=O)C(Cc3c[nH]c4ccccc34)NC(=O)C(C(C)C)NC(=O)C(CC(C)C)NC(=O)C(CCC(N)=O)NC(=O)CNC1=O)C(=O)NC(C(C)O)C(=O)N1CCCC1C(=O)N1CC(N)CC1C(=O)NC(CC(=O)O)C(=O)N2 (stereo not drawn) [compound 60] (cyclo(GQLVWCTP[ξPro(4-NH2)]DCAWHL); disulfide 6-11; configuration not given here)
19 | < 100 nM | CC(C)C[C@@H]1NC(=O)[C@H](Cc2cnc[nH]2)NC(=O)[C@H](Cc2c[nH]c3ccccc23)NC(=O)[C@H](C)NC(=O)[C@@H]2CC/C=C/C[C@H](NC(=O)[C@H](Cc3c[nH]c4ccccc34)NC(=O)[C@H](C(C)C)NC(=O)[C@H](CC(C)C)NC(=O)[C@H](CCC(=O)O)NC(=O)CNC1=O)C(=O)N[C@@H]([C@@H](C)O)C(=O)N1CCC[C@@H]1C(=O)N1CCC[C@H]1C(=O)N[C@@H](CC(=O)O)C(=O)N2 [compound 99]
20 | < 100 nM | CC(C)CC1NC(=O)C(Cc2cnc[nH]2)NC(=O)C(Cc2c[nH]c3ccccc23)NC(=O)C(C)NC(=O)C2CSSCC(NC(=O)C(Cc3c[nH]c4ccccc34)NC(=O)C(C(C)C)NC(=O)C(CC(C)C)NC(=O)C(CCC(=O)N(C)C)NC(=O)CNC1=O)C(=O)NC(C(C)O)C(=O)N1CCCC1C(=O)N1CC(N)CC1C(=O)NC(CC(N)=O)C(=O)N2 (stereo not drawn) [compound 69] (cyclo(GE(NMe2)LVWCTP[ξPro(4-NH2)]NCAWHL); disulfide 6-11; configuration not given here)

Row | Structure (SMILES) | Kd
21 | CC(C)C[C@@H]1NC(=O)[C@H](Cc2cnc[nH]2)NC(=O)[C@H](Cc2c[nH]c3ccccc23)NC(=O)[C@H](C)NC(=O)[C@@H]2CSSC[C@H](NC(=O)[C@H](Cc3c[nH]c4ccccc34)NC(=O)[C@H](C(C)C)NC(=O)[C@H](CC(C)C)NC(=O)[C@H](CCC(=O)N(C)C)NC(=O)CNC1=O)C(=O)N[C@@H]([C@@H](C)O)C(=O)N1CCC[C@@H]1C(=O)N1C[C@@H](N)C[C@H]1C(=O)N[C@@H](C)C(=O)N2 [compound 68] | < 100 nM
